According to patent publication US20210030843A1, “COMPOSITION AND METHOD FOR REDUCING CHEMOTHERAPY-INDUCED NEUTROPENIA VIA THE ADMINISTRATION OF PLINABULIN AND A G-CSF AGENT” (BEYONDSPRING PHARMACEUTICALS, INC., priority 2018, published 2021):
Several values for one entry are separate records, joined by “and”; a condition that tells them apart may be missing. Identical values can stand only once. Like-named read-outs stand apart in the source and are kept apart here.

Legend:
[1] = test system: Patients with solid tumors; experiment: Plinabulin monotherapy in patients with solid tumors, laboratory parameters; assay type: in vivo, human; details: in the absence of chemotherapy
[2] = test system: neutropenia caused by chemotherapies; experiment: Animal model studies of chemotherapy-caused neutropenia; assay type: in vivo; details: docetaxel, cisplatin, adriamycin, cyclosphosphamide, topotecan, gemcitabine
[3] = test system: patients with solid tumors receiving docetaxel myelosuppressive chemotherapy; experiment: Example 1: randomized, double blind study, plinabulin versus pegfilgrastim with docetaxel; assay type: in vivo, human; details: for change of neutrophil count through time (FIG. 1): after docetaxel 75 mg/m^2, pegfilgrastim 6 mg, plinabulin 5, 10, 20 mg/m^2
Procedure: A randomized, double blind study to evaluate duration of severe neutropenia with plinabulin versus pegfilgrastim in patients with solid tumors receiving docetaxel myelosuppressive chemotherapy was performed. Patients were randomly assigned to the following arms (with the respective sample sizes): Arm 1: Docetaxel (75 mg/m^2)+Pegfilgrastim (6 mg) (n=14); Arm 2: Docetaxel (75 mg/m^2)+Plinabulin (20 mg/m^2) (n=14); Arm 3: Docetaxel (75 mg/m^2)+Plinabulin (10 mg/m^2) (n=14); and Arm 4: Docetaxel (75 mg/m^2)+Plinabulin (5 mg/m^2) (n=13).

[4] = test system: patients (docetaxel-induced neutropenia); details: for proportion of patients with Grade 4 neutropenia: Cycle 1, docetaxel treatment alone vs addition of plinabulin to docetaxel, ANC <0.5×10^9/L, p<0.0003
patients [5] = details: Plinabulin
[6] = test system: NSCLC patients (pts) with a measurable lesion; experiment: Phase 2 trial, addition of Plinabulin to Docetaxel in NSCLC patients; details: human, in vivo
[7] = test system: Patients with first line breast cancer receiving TAC; experiment: Example 2: Phase 2 open label study, plinabulin and pegfilgrastim after TAC; assay type: in vivo, human; details: pegfilgrastim 6 mg
Procedure: A multicenter, randomized study, involving G-CSF and plinabulin was performed. The Phase 2 portion was randomized and open label. The decision to complete the Phase 2 portion of the study as open label was made to reduce the complexities of study conduct and to allow for the assessment, via QoL, of same-day plinabulin dosing (i.e on the day of chemotherapy dosing) versus next day dosing with G-CSF. Patients with first line breast cancer were enrolled in the study.
Patients received up to 4 cycles of a docetaxel/doxorubicin/cyclophosphamide based chemotherapy regimen, every 3 weeks (21 days). On Day 1 of Cycle 1, all patients receive docetaxel (75 mg/m^2), doxorubicin (50 mg/m^2), and cyclophosphamide (500 mg/m^2)-Taxotere, Adriamycin and cyclophosphamide (TAC).
During Cycles 2 to 4, the doxorubicin component may be omitted at the discretion of the investigator, i.e., TC can be administered instead of TAC.
The eligibility of all patients was determined during a 28-day screening period.
Phase 2 (Open Label): In Phase 2, patients were randomly assigned to one of the treatment arms, with the arm designation and planned intervention as shown in Table 2.
Patients have been randomized to receive TAC (or TC for Cycles 2 to 4)+pegfilgrastim or a combination of plinabulin and pegfilgrastim in each of Arms 1, 2, 3, and 4.
In Phase 2 (Open Label), Cycles 1 to 4 consisted of TAC (or TC for Cycles 2 to 4) administered IV on Day 1, every 21 days. Patients in Arms 2 and 3 received a single dose of plinabulin over 30 minutes (±5 minutes), 30 minutes after the end of the TAC (or TC for Cycles 2 to 4) infusion on Day 1. On Day 2 of each cycle (≥24 hours after completing chemotherapy) patients in […] received a single dose of pegfilgrastim (6.0 mg) (subcutaneous injection) in an open label treatment.
Docetaxel: Docetaxel was administered at a dose of 75 mg/m2. Administration was carried out with a 1-hour IV infusion per institutional protocol at the dose prescribed by this clinical study protocol (75 mg/m2). Dexamethasone (16 mg per day administered as 8 mg twice daily, or as per institution standard) was given on the day before, the day of (Day 1), and the day following docetaxel infusion (Day 2).
Doxorubicin: Doxorubicin was administered at a dose of 50 mg/m2. Doxorubicin is potentially cardiotoxic. Risk for doxorubicin cardiotoxicity increases with the cumulative lifetime dose of doxorubicin. At the doxorubicin dose and schedule in this study, patients received a cumulative doxorubicin dose of […] of body surface area, below the threshold for symptomatic cardiac dysfunction. Patients were monitored, per institutional standard, for doxorubicin cardiotoxicity.
Cyclophosphamide: Cyclophosphamide was administered at a dose of 500 mg/m^2.
TAC Regimen: All patients received 3 week cycles of TAC chemotherapy. In each cycle, doxorubicin (50 mg/m2) given as a 15-minute IV infusion was administered first, followed immediately by cyclophosphamide (500 mg/m2) given as a 30-minute IV infusion, and then by docetaxel (75 mg/m2) administered as 1-hour IV infusion (the infusion times stated are approximate).

patients [8] = details: most common adverse reactions; cited from earlier work
patients [9] = details: G-CSF, cited from earlier work
[10] = Table 4, alone or with plinabulin 20 mg/m^2
[11] = cycle 1 after TAC, breast cancer, alone or with plinabulin 20 mg/m^2

CC(C)(C)c1[nH]cnc1/C=c1\[nH]c(=O)/c(=C/c2ccccc2)[nH]c1=O [Plinabulin, (3Z,6Z)-3-Benzylidene-6-{[5-(2-methyl-2-propanyl)-1H-imidazol-4-yl]methylene}-2,5-piperazinedione]
changes in hematology or chemistry laboratory parameters [1]: did not experience any clinically significant deleterious changes | prevention of neutropenia caused by chemotherapies [2]: prevent neutropenia | change of neutrophil count through time (FIG. 1) [3]: started to rise again on day 10 | treating neutropenia induced by chemotherapeutic agent ([3]; docetaxel 75 mg/m^2): effective | overshot of the ANC during recovery ([3]; in vivo): prevented | Grade 3 transient hypertension, patients ([4]; 20 mg/m^2 plinabulin): 5% | Grade 3 transient hypertension, patients ([4]; 30 mg/m^2 plinabulin): 20% | proportion of patients with Grade 4 neutropenia [4]: 4.6% | clinical sequelae associated with docetaxel-induced neutropenia (sepsis, infections, hospitalizations, docetaxel dose reductions, G-CSF use) ([4]; human, in vivo): reduced | bone pain, patients ([4]; patients receiving plinabulin): 4% | Bone Pain (% of patients) (patients [5]): <4% | Hospitalization (% of patients) (patients [5]): 6% | Immune-Related AEs (IR-AEs) [6]: without increasing

CC(=O)O[C@@]12CO[C@@H]1C[C@H](O)[C@@]1(C)C(=O)[C@H](O)C3=C(C)[C@@H](OC(=O)[C@H](O)[C@@H](NC(=O)OC(C)(C)C)c4ccccc4)C[C@@](O)([C@@H](OC(=O)c4ccccc4)[C@H]21)C3(C)C [docetaxel, reference compound]
proportion of patients with Grade 4 neutropenia [4]: 33.3%

B1: pegfilgrastim: colony-stimulating factor that acts on hematopoietic cells by binding to specific cell surface receptors (protein, chains of the INN, looked up)
chain: TPLGPASSLPQSFLLKCLEQVRKIQGDGAALQEKLCATYKLCHPEELVLLGHSLGIPWAPLSSCPSQALQLAGCLSQLHSGLFLYQGLLQALEGISPELGPTLDTLQLDVADFATTIWQQMEELGMAPALQPTQGAMPAFASAFQRRAGGVLVASHLQSFLEVSYRVLRHLAQP
modifications: PEG
change of neutrophil count through time (FIG. 1) [3]: began to drop after 10 days | Anti-cancer [7, 10]: No | DSN (grade 3/4) [7, 10]: Well over 1 day | % neutropenia (grade 4) [7, 11]: 57% and > 50% | DSN (grade 3/4) [7, 11]: 1.4 ± 1.0 | patients with NLR greater than 5 (FIG. 6) [7, 11]: 76% | ANC nadir of median ANC (FIG. 2) ([7]; first 10 days of cycle 1, alone or with plinabulin 20 mg/m2): within the grade 3/4 neutropenia range | Median ANC Nadir ([7]; alone or with plinabulin 20 mg/m^2): 0.47 10^9 cells/L | bone pain, patients (patients [8]): 31% | pain in an extremity, patients (patients [8]): 9%

B2: G-CSF: Granulocyte-colony stimulating factor: compounds or factors that stimulate proliferation, differentiation, commitment and end cell functional activation of granulocytes (protein, UniProt P09919 31-207, looked up)
Granulocyte …: TPLGPASSLPQSFLLKCLEQVRKIQGDGAALQEKLVSECATYKLCHPEELVLLGHSLGIPWAPLSSCPSQALQLAGCLSQLHSGLFLYQGLLQALEGISPELGPTLDTLQLDVADFATTIWQQMEELGMAPALQPTQGAMPAFASAFQRRAGGVLVASHLQSFLEVSYRVLRHLAQP
Hospitalization (% of patients) (patients [9]): 20% | Bone Pain (% of patients) (patients [9]; footnote mark 1): >20%^1
